One may read the TGI as the concentration at which net growth stops. The low end stands for greater sensitivity of the cells, the high end for lower sensitivity of the cells.

Among the test systems are 786-0 renal; BT-549 breast; CAKI-1 renal; CCRF-CEM leukemia; HCT-116 colon; HL-60(TB) leukemia; HT29 colon; NCI-H226 lung; NCI-H460 lung; OVCAR-8 ovarian; SF-295 CNS; SF-539 CNS; UO-31 renal; HCC-2998 colon.
Assay in all cases: DTP human tumour cell line panel, 48 h

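Where inhibition never reached the appropriate level, the endpoint shown equals the highest concentration tested. Otherwise, values were interpolated linearly from a five-concentration, 48-hour dose response in 96-well plates. At the TGI there is no net growth.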

Consider `COc1ccccc1NC(=S)Nc1ccccn1`, for which the TGI in the test with 786-0 renal, in the test on BT-549 breast, in the test on CAKI-1 renal, in the test with CCRF-CEM leukemia, with HCT-116 colon and in the test on HL-60(TB) leukemia was above 100 µM each time. The TGI in the test on HT29 colon, in the test on NCI-H226 lung, in the test on NCI-H460 lung, in the test with OVCAR-8 ovarian, with SF-295 CNS and with SF-539 CNS was above 100 µM in each case. In addition, in the test with UO-31 renal, the TGI is above 100 µM.

Turning to `CCOC1OC(CO[Si](C)(C)C(C)(C)C)C(O)CC1n1ccc(=O)[nH]c1=O` (configuration not stated), the TGI in the test on 786-0 renal is above 100 µM; in the test with BT-549 breast, above 100 µM; in the test with CAKI-1 renal, above 100 µM; with HCC-2998 colon, above 100 µM; with HCT-116 colon, 30.7 µM; in the test on HT29 colon, above 100 µM. Besides, the TGI with NCI-H226 lung, in the test with NCI-H460 lung, in the test on OVCAR-8 ovarian, in the test on SF-295 CNS, with SF-539 CNS and in the test with UO-31 renal was above 100 µM throughout.

As to `O=C(N/N=C\c1ccc([N+](=O)[O-])cc1)Nc1ccc2ccccc2c1`, the TGI in the test with 786-0 renal was 32.7 µM; with BT-549 breast, above 100 µM; in the test on CAKI-1 renal, above 100 µM; in the test on CCRF-CEM leukemia, above 100 µM; in the test on HCC-2998 colon, 62.9 µM; in the test on HCT-116 colon, 63.3 µM. In addition, the concentration for total growth inhibition (TGI) was 72.2 µM in the test with HT29 colon; above 100 µM in the test with NCI-H226 lung; 36.2 µM in the test with NCI-H460 lung; above 100 µM with OVCAR-8 ovarian; above 100 µM in the test on SF-295 CNS; 47.6 µM in the test with SF-539 CNS. In addition, in the test with UO-31 renal, the TGI is above 100 µM.

Turning to `Nc1nc(N)c2ncn(Cc3ccccc3CO)c2n1`, the TGI in the test with 786-0 renal, with BT-549 breast, in the test with CAKI-1 renal, with CCRF-CEM leukemia, in the test with HCT-116 colon and in the test on HL-60(TB) leukemia was above 100 µM throughout. For the same compound, the TGI in the test with HT29 colon, in the test on NCI-H226 lung, in the test with NCI-H460 lung, with OVCAR-8 ovarian, in the test on SF-295 CNS and with SF-539 CNS was above 100 µM in each case. Besides, the concentration for total growth inhibition (TGI) in the test on UO-31 renal is above 100 µM.

Take `CSc1cc(Cl)c(C(=O)Nc2ccccc2)cc1S(=O)(=O)n1cc[nH]c1=O`: the TGI in the test on 786-0 renal, in the test on BT-549 breast, in the test on CAKI-1 renal, in the test on CCRF-CEM leukemia, in the test with HCC-2998 colon and with HCT-116 colon was above 100 µM in each case. For the same compound, the TGI with HL-60(TB) leukemia, in the test on HT29 colon, with NCI-H460 lung, in the test with OVCAR-8 ovarian, in the test with SF-539 CNS and in the test with UO-31 renal was above 100 µM each time.

With `CCOP(=O)(OCC)/C(C#N)=C/c1cccn1C`, the concentration for total growth inhibition (TGI) in the test on 786-0 renal is above 100 µM; with BT-549 breast, above 100 µM; with CAKI-1 renal, above 100 µM; in the test with CCRF-CEM leukemia it was 89 µM; with HCC-2998 colon, above 100 µM; in the test on HCT-116 colon it was above 100 µM. For the same compound, the TGI with HT29 colon, with NCI-H226 lung, in the test on NCI-H460 lung, with OVCAR-8 ovarian, in the test with SF-295 CNS and with SF-539 CNS was above 100 µM in each case. Besides, in the test on UO-31 renal, the TGI was found to be 99.5 µM.

On to `CC(C)CC1C(=O)OC(C)(C)OC1=O`, for which the TGI in the test with 786-0 renal, in the test with BT-549 breast, in the test with CAKI-1 renal, with CCRF-CEM leukemia, with HCC-2998 colon and in the test on HCT-116 colon was above 100 µM throughout. Also, the TGI with HT29 colon, with NCI-H226 lung, in the test with NCI-H460 lung, in the test with OVCAR-8 ovarian, with SF-295 CNS and in the test with SF-539 CNS was above 100 µM throughout. This compound had a TGI in the test on UO-31 renal above 100 µM.

For `COc1cc2c(/C=C3/C(=O)Nc4cc(C)c(O)cc43)c(Cl)[nH]c2cc1C`, the TGI amounted to 8.91 µM in the test with 786-0 renal; 45.3 µM in the test on BT-549 breast; 7.01 µM with CAKI-1 renal; 2.02 µM with CCRF-CEM leukemia; 8.84 µM in the test on HCT-116 colon; 5.31 µM in the test on HT29 colon. Moreover, the TGI in the test on NCI-H226 lung came to 23.6 µM; in the test with NCI-H460 lung, 8.89 µM; in the test on OVCAR-8 ovarian it was 15.7 µM; with SF-295 CNS, 5.07 µM; in the test on SF-539 CNS, 5.93 µM; in the test on UO-31 renal, 17.7 µM.

Turning to `CSCCCNC(=O)c1csc(-c2csc(CCNC(=O)CNC(=O)OC(C)(C)C)n2)n1`, the TGI in the test with 786-0 renal, in the test with BT-549 breast, in the test with CAKI-1 renal, with CCRF-CEM leukemia, with HCC-2998 colon and in the test with HCT-116 colon was above 100 µM each time. Also, the total growth inhibition concentration (TGI) with HT29 colon, with NCI-H226 lung, with NCI-H460 lung, with OVCAR-8 ovarian, in the test with SF-295 CNS and in the test with SF-539 CNS was above 100 µM each time. In addition, in the test with UO-31 renal, the TGI is above 100 µM.

Take `CN1CC[C@@]2(c3cccc(O)c3)CC(=O)/C(=C/c3ccc(Cl)c(Cl)c3)[C@H]1C2`: the TGI with 786-0 renal was 3.07 µM; with BT-549 breast, 4.33 µM; with CCRF-CEM leukemia, above 100 µM; in the test on HCC-2998 colon it was 3.37 µM; in the test on HL-60(TB) leukemia it was 3.82 µM; in the test with HT29 colon it was 2.72 µM. The TGI in the test on NCI-H460 lung worked out at 4.72 µM; in the test with OVCAR-8 ovarian it was 10.1 µM; with SF-295 CNS it was 3.86 µM; with UO-31 renal it was 4.33 µM.

Consider `COc1cc2c(cc1OCCCN1CCOCC1)N=C[C@@H]1CCCN1C2=O`, for which the total growth inhibition concentration (TGI) was above 100 µM in the test on 786-0 renal; above 100 µM in the test on BT-549 breast; 26.3 µM in the test with CAKI-1 renal; 25.3 µM in the test with CCRF-CEM leukemia; 54.3 µM in the test on HCT-116 colon; 29.6 µM with HL-60(TB) leukemia. The TGI with HT29 colon was 47.7 µM; with NCI-H226 lung it was 65.9 µM; in the test on NCI-H460 lung it was above 100 µM; with OVCAR-8 ovarian it was 98.3 µM; in the test on SF-295 CNS it was 42.1 µM; in the test on SF-539 CNS, 22.3 µM. Besides, the TGI in the test on UO-31 renal is above 100 µM.

(Values after PubChem BioAssay (NCI).)
